From patent EP0664121A1, “Inhibition of ldl oxidation and atherosclerosis” (ELI LILLY AND COMPANY, priority 1993, dated 1995)

How the values were obtained:
[1] = test system: Resident macrophages from the mouse peritoneal cavity; test: Macrophage-mediated oxidation (cellular modification) of LDL, TBAR values; assay type: cell-based; conditions: LDL 1 mg/ml, 24 hrs, media-alone value subtracted
Description: Resident macrophages from the mouse peritoneal cavity were plated at 1 x 10⁶ cells per well in F10 media without serum. […] The wells designated media alone represents LDL incubated overnight on the same plate with F10 media without cells. This value was subtracted from the TBAR values obtained in the presence of resident macrophages and reflects the extent of cellular modification of LDL.

[2] = test system: LDL; test: Thiobarbituric acid assay of copper-induced LDL peroxidation; assay type: biochemical; conditions: 250 µg LDL in 1 ml, 5 µM CuSO₄, 5-18 hrs at 37 degrees C
Description: The thiobarbituric acid assay as described by Schuh et al., (PNAS 75: 3173, 1978) and modified by Morel et al., (Lab Invest 55: 419, 1986) was used to determine the degree of inhibition of LDL peroxidation by estradiol and Compound A of the invention. A 1 ml solution containing 250 micrograms (µg) of LDL with either estradiol or Compound A of the invention in amounts varying from 1-30 µM is incubated for 5-18 hrs at 37 degrees C in the presence of 5 µM CuSO₄. Following incubation, 1 ml of 25% trichloroacetic acid and 1 ml of 1% thiobarbituric acid is added. All samples are boiled for 45 minutes and fluorescence is measured at 515 nm excitation and 553 nm emission wavelengths. (Compound A is a compound of formula 1 wherein R₁ and R₃ are hydrogen, and R₂ is 1-pyrrolidino).

Structure (SMILES): O=C(c1ccc(OCCN2CCCC2)cc1)c1c(-c2ccc(O)cc2)sc2cc(O)ccc12 [Compound A]
- TBAR Units ([1]; 1 µM compound): 129 TBAR Units
- TBAR Units ([1]; 2.5 µM compound): 75 TBAR Units
- TBAR Units ([1]; 5 µm compound): 30 TBAR Units
- TBAR Units ([2]; 1µM compound): 142 TBAR UNITS
- TBAR Units ([2]; 5µM compound): 109 TBAR UNITS
- TBAR Units ([2]; 25µM compound): 78 TBAR UNITS

Structure (SMILES): C[C@]12CC[C@@H]3c4ccc(O)cc4CC[C@H]3[C@@H]1CC[C@@H]2O [Estradiol, estradiol, reference compound]
- TBAR Units ([1]; 25 µM compound): 30 TBAR Units
